22 compounds from patent publication US9695152B2, “3,4-dihydro-2H-isoquinoline-1-one and 2,3-dihydro-isoindol-1-one compounds” (Hoffmann-La Roche Inc., priority 2013, dated 2017) can be followed below.

The target in assay [1] is human CYP11B1 (Homo sapiens (Human), UniProt P15538). The experiment in a line: G-402 cellular enzyme assay, human CYP11B1 (cortisol release, HTRF). It is filed as cell-based. To be noted: G-402 cells expressing human CYP11B1, 1 μM Deoxycortisol. From the text:
(§1) Herein we identified the use of the G-402 cell line as a host cell to ectopically express (transiently or stably) enzymes of the CYP11 family. Specifically we developed stable G-402 cells expressing ectopically human CYP11B1, human CYP11B2, human CYP11A1, cynmolgus CYP11B1 or cynomolgus CYP11B2 enzyme activity. Importantly the identified cell line G-402 expresses co-factors (adrenodoxin and adrenodoxin reductase) important for the activity of the CYP11 family and no relevant enzyme activity of the CYP11 family (in comparison to H295R cells) was detected in these cells. Therefore the G-402 cell line is uniquely suited as a host cell for the ectopic expression of enzymes from the CYP11 family.
(§2) G-402 cells can be obtained from ATCC (CRL-1440) and were originally derived from a renal leiomyoblastoma.
(§3) The expression plasmids contains the ORF for either human/cyno CYP11B1 or CYP11B2 under the control of a suitable promoter (CMV-promoter) and a suitable resistance marker (neomycin). Using standard techniques the expression plasmid is transfected into G-402 cells and these cells are then selected for expressing the given resistance markers. Individual cell-clones are then selected and assessed for displaying the desired enzymatic activity using 11-Deoxycorticosterone (Cyp11B2) or 11-Deoxycortisol (Cyp11B1) as a substrate.
(§4) G-402 cells expressing CYP11 constructs were established as described above and maintained in McCoy's 5a Medium Modified, ATCC Catalog No. 30-2007 containing 10% FCS and 400 μg/ml G418 (Geneticin) at 37° C. under an atmosphere of 5% CO2/95% air. Cellular enzyme assays were performed in DMEM/F12 medium containing 2.5% charcoal treated FCS and appropriate concentration of substrate (0.3-10 uM 11-Deoxycorticosterone, 11-Deoxycortisol or Corticosterone). For assaying enzymatic activity, cells were plated onto 96 well plates and incubated for 16 h. An aliquot of the supernatant is then transferred and analyzed for the concentration of the expected product (Aldosterone for CYP11B2; Cortisol for CYP11B1). The concentrations of these steroids can be determined using HTRF assays from CisBio analyzing either Aldosterone or Cortisol.
(§5) Inhibition of the release of produced steroids can be used as a measure of the respective enzyme inhibition by test compounds added during the cellular enzyme assay. The dose dependent inhibition of enzymatic activity by a compound is calculated by means of plotting added inhibitor concentrations (x-axes) vs. measured steroid/product level (y-axes). The inhibition is then calculated by fitting the following 4-parameter sigmoidal function (Morgan-Mercer-Flodin (MMF) model) to the raw data points using the least squares method:
(§6) [formula] wherein, A is the maximum y value, B is the EC50 factor determined using XLFit, C is the minimum y value and D is the slope value.
(§7) EC50 values for compounds claimed herein were tested with the G402-based assay system described. Cyp11B2 enzyme activity was tested in presence of 1 μM Deoxycorticosterone and variable amounts of inhibitors; Cyp11B1 enzyme activity was tested in presence of 1 μM Deoxycortisol and variable amounts of inhibitors.
Background: In TR-FRET formats the signal depends on donor and acceptor labels being close together.

In assay [2] the target is CYP11B2 (Homo sapiens (Human), UniProt P19099). The experiment in a line: G-402 cellular enzyme assay, human CYP11B2 (aldosterone release, HTRF). The format is cell-based. The following applies: G-402 cells expressing human CYP11B2, 1 μM Deoxycorticosterone.
From the text: as §1, §2, §3, §4, §5, §6, §7

Where only a bound is given, the exact number is not on record here.

Chain of CYP11B2 (P19099 25-503): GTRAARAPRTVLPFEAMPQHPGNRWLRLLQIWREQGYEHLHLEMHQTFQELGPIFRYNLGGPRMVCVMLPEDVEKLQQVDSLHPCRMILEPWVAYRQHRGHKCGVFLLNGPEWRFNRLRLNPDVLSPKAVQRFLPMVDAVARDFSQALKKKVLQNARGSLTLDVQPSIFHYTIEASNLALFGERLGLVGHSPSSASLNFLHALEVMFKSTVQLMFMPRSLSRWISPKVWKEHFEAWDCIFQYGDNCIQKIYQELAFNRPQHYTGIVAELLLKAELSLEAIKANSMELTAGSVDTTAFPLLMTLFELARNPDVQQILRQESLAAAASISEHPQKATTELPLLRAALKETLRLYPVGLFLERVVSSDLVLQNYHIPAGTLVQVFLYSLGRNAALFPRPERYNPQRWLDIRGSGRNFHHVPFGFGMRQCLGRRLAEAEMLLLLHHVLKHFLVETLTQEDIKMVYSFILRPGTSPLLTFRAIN
Chain of human CYP11B1 (P15538 25-503): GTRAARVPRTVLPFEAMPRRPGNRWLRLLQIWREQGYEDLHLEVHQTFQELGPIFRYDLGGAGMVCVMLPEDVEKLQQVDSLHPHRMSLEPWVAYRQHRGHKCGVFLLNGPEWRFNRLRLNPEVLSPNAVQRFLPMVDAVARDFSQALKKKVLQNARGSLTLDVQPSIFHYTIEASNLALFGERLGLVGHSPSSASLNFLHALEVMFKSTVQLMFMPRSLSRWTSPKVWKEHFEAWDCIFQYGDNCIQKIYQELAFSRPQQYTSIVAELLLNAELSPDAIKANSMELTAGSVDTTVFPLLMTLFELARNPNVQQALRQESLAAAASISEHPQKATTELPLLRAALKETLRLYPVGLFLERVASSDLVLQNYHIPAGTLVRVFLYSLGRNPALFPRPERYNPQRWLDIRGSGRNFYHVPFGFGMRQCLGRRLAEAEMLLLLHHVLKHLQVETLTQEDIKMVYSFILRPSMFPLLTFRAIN

As usually defined, the EC50 is the concentration at which the effect is half-maximal. Regarding `Cc1ccncc1C(=O)N1CC(Nc2cncc(N3C(=O)c4ccc(Cl)cc4[C@H]3C)c2)C1` (single isomer, unassigned) [Example 25, (3R or 3S)-5-Chloro-3-methyl-2-[5-[[1-(4-methylpyridine-3-carbonyl)azetidin-3-yl]amino]-3-pyridyl]isoindolin-1-one], the EC50 in assay [1] came to 4360 nM; in assay [2], 7 nM.
The matching figures for `Cc1ccncc1C(=O)N1CC(Nc2cncc(N3C(=O)c4ccc(Cl)cc4[C@H]3C)c2)C1` (single isomer, unassigned) [Example 26, (3S or 3R)-5-Chloro-3-methyl-2-[5-[[1-(4-methylpyridine-3-carbonyl)azetidin-3-yl]amino]-3-pyridyl]isoindolin-1-one]: 1910 nM and 16 nM.
As for `C[C@@H]1c2cc(Cl)ccc2C(=O)N1c1cncc(NC2CN(C(=O)c3ncccc3Cl)C2)c1` (single isomer, unassigned) [Example 27, (3R or 3S)-5-Chloro-2-[5-[[1-(3-chloropyridine-2-carbonyl)azetidin-3-yl]amino]-3-pyridyl]-3-methyl-isoindolin-1-one], the results for the EC50 in assay [1] and in assay [2] were 1130 nM and 20 nM, respectively.
In the case of `C[C@H]1c2cc(Cl)ccc2C(=O)N1c1cncc(NC2CN(C(=O)c3ncccc3Cl)C2)c1` (single isomer, unassigned) [Example 28, (3S or 3R)-5-Chloro-2-[5-[[1-(3-chloropyridine-2-carbonyl)azetidin-3-yl]amino]-3-pyridyl]-3-methyl-isoindolin-1-one], the EC50 worked out at 533 nM in assay [1] and 27 nM in assay [2].
As for `C[C@@H]1c2cc(Cl)ccc2C(=O)N1c1cncc(NC2CN(S(=O)(=O)C3CC3)C2)c1` (single isomer, unassigned) [Example 29, (3R or 3S)-5-Chloro-2-[5-[(1-cyclopropylsulfonylazetidin-3-yl)amino]-3-pyridyl]-3-methyl-isoindolin-1-one], the figures for the EC50 in assay [1] and in assay [2] were 5810 nM and 29 nM, respectively.
As to `C[C@@H]1c2cc(Cl)ccc2C(=O)N1c1cncc(NC2CN(S(=O)(=O)C3CC3)C2)c1` (single isomer, unassigned) [Example 30, (3S or 3R)-5-Chloro-2-[5-[(1-cyclopropylsulfonylazetidin-3-yl)amino]-3-pyridyl]-3-methyl-isoindolin-1-one], the EC50 is 652 nM in assay [1] and 18 nM in assay [2].
Take `CN(c1cncc(N2C(=O)c3ccc(Cl)cc3C2(C)C)c1)C1CCN(S(=O)(=O)C2CC2)C1` (single isomer, unassigned; (+)) [Example 4, (+)-5-Chloro-2-[5-[[(3R or 3S)-1-cyclopropylsulfonylpyrrolidin-3-yl]-methylamino]pyridin-3-yl]-3,3-dimethylisoindol-1-one]: the results for the EC50 in assay [1] and in assay [2] were 56 nM and 2 nM, respectively.
`CC1(C)c2cc(Cl)ccc2C(=O)N1c1cncc(NC2CCCN(S(=O)(=O)C3CC3)C2)c1` (single isomer, unassigned; (+)) [Example 7, (+)-5-Chloro-2-[5-[[(3R or 3S)-1-cyclopropylsulfonylpiperidin-3-yl]amino]pyridin-3-yl]-3,3-dimethylisoindol-1-one]: the EC50 in assay [1] is more than 30000 nM; in assay [2] it was 230 nM.
As for `CN(c1cncc(N2C(=O)c3ccc(Cl)cc3C2(C)C)c1)C1CCN(S(=O)(=O)C2CC2)C1` (single isomer, unassigned; (-)) [Example 5, (−)-5-chloro-2-[5-[[(3S or 3R)-1-cyclopropylsulfonylpyrrolidin-3-yl]-methylamino]pyridin-3-yl]-3,3-dimethylisoindol-1-one], the EC50 was found to be 133 nM in assay [1] and 1 nM in assay [2].
As for `CC1(C)c2cc(Cl)ccc2C(=O)N1c1cncc(NC2CCCN(S(=O)(=O)C3CC3)C2)c1` (single isomer, unassigned; (-)) [Example 8, (−)-5-Chloro-2-[5-[[3S or 3R)-1-cyclopropylsulfonylpiperidin-3-yl]amino]pyridin-3-yl]-3,3-dimethylisoindol-1-one], the EC50 in assay [1] came out at 19500 nM; in assay [2] it was 365 nM.
The matching figures for `CC1(C)c2cc(Cl)ccc2C(=O)N1c1cncc(NC2CN(S(=O)(=O)C3CC3)C2)c1` [Example 1, 5-Chloro-2-[5-[(1-cyclopropylsulfonylazetidin-3-yl)amino]pyridin-3-yl]-3,3-dimethylisoindol-1-one]: 1250 nM and 9 nM.
The matching figures for `Cn1ccnc1C(=O)N1CC(Nc2cncc(N3C(=O)c4ccc(Cl)cc4C3(C)C)c2)C1` [Example 2, 5-Chloro-3,3-dimethyl-2-[5-[[1-(1-methylimidazole-2-carbonyl)azetidin-3-yl]amino]-3-pyridyl]isoindolin-1-one]: 450 nM and 4 nM.
Turning to `CN(c1cncc(N2C(=O)c3ccc(Cl)cc3C2(C)C)c1)C1CN(S(=O)(=O)C2CC2)C1` [Example 3, 5-Chloro-2-[5-[(1-cyclopropylsulfonylazetidin-3-yl)-methylamino]pyridin-3-yl]-3,3-dimethylisoindol-1-one], the EC50 worked out at 18 nM in assay [1] and 0.4 nM in assay [2].
As to `CN(c1cncc(N2C(=O)c3ccc(Cl)cc3C2(C)C)c1)C1CCN(S(=O)(=O)C2CC2)CC1` [Example 6], the figures for the EC50 in assay [1] and in assay [2] were 4 nM and 1 nM, respectively.
Turning to `CC1(C)c2cc(Cl)ccc2C(=O)N1c1cncc(NC2CN(C(=O)c3ncccc3Cl)C2)c1` [Example 9, 5-Chloro-2-[5-[[1-(3-chloropyridine-2-carbonyl)azetidin-3-yl]amino]pyridin-3-yl]-3,3-dimethylisoindol-1-one], the EC50 in assay [1] turned out to be 297 nM; in assay [2], 7 nM.
The matching figures for `Cc1ccncc1C(=O)N1CC(Nc2cncc(N3C(=O)c4ccc(Cl)cc4C3(C)C)c2)C1` [Example 10, 5-Chloro-3,3-dimethyl-2-[5-[[1-(4-methylpyridin-3-carbonyl)azetidin-3-yl]amino]pyridin-3-yl]isoindol-1-one]: 1740 nM and 11 nM.
Turning to `Cc1cncc(C(=O)N2CC(Nc3cncc(N4C(=O)c5ccc(Cl)cc5C4(C)C)c3)C2)c1` [Example 11, 5-Chloro-3,3-dimethyl-2-[5-[[1-(5-methylpyridine-3-carbonyl)azetidin-3-yl]amino]pyridin-3-yl]isoindol-1-one], the EC50 in assay [1] worked out at 1950 nM; in assay [2], 3 nM.
In the case of `CC1c2cc(Cl)ccc2C(=O)N1c1cncc(NC2CN(C(=O)c3ncccc3Cl)C2)c1` (centres unmarked) [Example 12, 5-Chloro-2-[5-[[1-(3-chloropyridine-2-carbonyl)azetidin-3-yl]amino]pyridin-3-yl]-3-methyl-3H-isoindol-1-one], the values for the EC50 in assay [1] and in assay [2] were 1830 nM and 18 nM, respectively.
For `Cc1ccncc1C(=O)N1CC(Nc2cncc(N3C(=O)c4ccc(Cl)cc4C3C)c2)C1` (centres unmarked) [Example 13, 5-Chloro-3-methyl-2-[5-[[1-(4-methylpyridine-3-carbonyl)azetidin-3-yl]amino]pyridin-3-yl]-3H-isoindol-1-one] the same measures were 4900 nM and 7 nM.
With `CC1c2cc(Cl)ccc2C(=O)N1c1cncc(NC2CN(S(=O)(=O)C3CC3)C2)c1` (centres unmarked) [Example 14, 5-Chloro-2-[5-[(1-cyclopropylsulfonylazetidin-3-yl)amino]pyridin-3-yl]-3-methyl-3H-isoindol-1-one], the results for the EC50 in assay [1] and in assay [2] were 2890 nM and 131 nM, respectively.
As to `O=C1c2ccc(Cl)cc2CCN1c1cncc(NC2CN(S(=O)(=O)C3CC3)C2)c1` [Example 15, 6-Chloro-2-[5-[(1-cyclopropylsulfonylazetidin-3-yl)amino]pyridin-3-yl]-3,4-dihydroisoquinolin-1-one], the half-maximal effective concentration (EC50) in assay [1] was found to be 9560 nM; in assay [2], 148 nM.
The matching figures for `Cc1ccncc1C(=O)N1CC(Nc2cncc(N3CCc4cc(Cl)ccc4C3=O)c2)C1` [Example 16, 6-Chloro-2-[5-[[1-(4-methylpyridine-3-carbonyl)azetidin-3-yl]amino]pyridin-3-yl]-3,4-dihydroisoquinolin-1-one]: 5340 nM and 10 nM.
